Results taken from patent US20240115571A1, “COMBINATION THERAPY FOR TREATING ABNORMAL CELL GROWTH” (priority 2021, published 2024).

Test system: EGFR mutant H1975 osimertinib-resistant (Dell9/T790M/C797S) NSCLC model
Test: H1975 osimertinib-resistant xenograft tumor mouse study
Assay type: in vivo, Balb/c nude mice
Conditions: VS-6766 0.3 mg/kg PO QD; osimertinib 2.5 mg/kg QD
Experimental: EGFR mutant H1975 NSCLC tumor cells were obtained from ATCC, EGFR mutant H1975 osimertinib-resistant NSCLC tumor cells were generated by Wuxi AppTec, and Balb/c nude mice were obtained from Beijing Vital River Laboratory Animal Technology. Tumor challenge was initiated by subcutaneous inoculation of 5×10^6 tumor cell suspensions into the right flank of recipient mice.
Tumor sizes (mm^3) and body weights were measured 2 times per week for the duration of the study. At the time of routine monitoring, the animals were checked for any effects of tumor growth and treatments on normal behavior such as mobility, food and water consumption (by looking only), and body weight gain/loss, eye/hair matting and any other abnormal effect.

CNS(=O)(=O)Nc1nccc(Cc2c(C)c3ccc(Oc4ncccn4)cc3oc2=O)c1F [VS-6766]
survival compared to osimertinib single agent: increased | tumor growth inhibition compared to osimertinib single agent: increased tumor growth inhibition
